Experimental data: patent US6906205B2, “Spiro and dispiro 1,2,4-trioxolane antimalarials” (Medicines for Malaria Venture MMV, priority 2002, dated 2005)
In brackets after ≈: the same amount, converted by molar mass.

Tested on: P. falciparum K1 strain (Thailand resistant to chloroquine)
Assay: semiautomated microdilution assay, [3H]-hypoxanthine incorporation, K1 strain
Format: cell-based, Plasmodium falciparum
Conditions: K1 strain, 72 h incubation
How it was run: (§1)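 IC50 values come from logit regression of semiautomated microdilution data obtained on intraerythrocytic parasites drawn from asynchronous cultures.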

Compound	IC50 (ng/ml) K1
C1CCC2(CC1)OOC1(CCCCC1)O2 [OZ01]	>100/>100 ng/ml
O=S(=O)(c1cccc2cccnc12)N1CCC2(CC1)OOC1(O2)C2CC3CC(C2)CC1C3 (stereo not shown) [OZ114]	3.7 ng/mL (≈ 8.1 nM)
NOC[C@H]1CC[C@]2(CC1)OO[C@]1(O2)C2CC3CC(C2)CC1C3 [OZ334]	28 ng/mL (≈ 90.5 nM)
O=S(=O)(c1ccccc1)N1CCC2(CC1)OOC1(O2)C2CC3CC(C2)CC1C3 (stereo not shown) [OZ60]	1.1 ng/mL (≈ 2.71 nM)
O=C(O)c1nccnc1C(=O)N1CCC2(CC1)OOC1(O2)C2CC3CC(C2)CC1C3 (stereo not shown) [OZ109]	21 ng/mL (≈ 50.5 nM)
Fc1ccc(C2CCC3(CC2)OOC2(O3)C3CC4CC(C3)CC2C4)cc1 (stereo not shown) [OZ41]	3.5 ng/mL (≈ 9.76 nM)
C1C2CC3CC1CC(C2)C31OOC2(CCC(NC3CC3)CC2)O1 (stereo not shown) [OZ185]	1.1 ng/mL (≈ 3.44 nM)
NC(=O)N[C@H]1CC[C@]2(CC1)OOC1(O2)C2CC3CC(C2)CC1C3 (stereo partly shown) [OZ221]	>10/>10 ng/ml
CC(C)(C)NC(=O)N1CCC2(CC1)OOC1(O2)C2CC3CC(C2)CC1C3 (stereo not shown) [OZ143]	0.98 ng/mL (≈ 2.69 nM)
O=C(O)C1(C(=O)O)COC2(CCC3(CC2)OOC2(O3)C3CC4CC(C3)CC2C4)OC1 (stereo not shown) [OZ122]	>100/>100 ng/ml
Cc1ccc(S(=O)(=O)NN=C2CCC3(CC2)OOC2(O3)C3CC4CC(C3)CC2C4)cc1 (stereo not shown) [OZ39]	1.4 ng/mL (≈ 3.14 nM)
c1ccc2c(c1)CCC1(C2)OOC2(O1)C1CC3CC(C1)CC2C3 (stereo not shown) [OZ85]	0.86 ng/mL (≈ 2.75 nM)

Tested on: P. falciparum NF54 strain (sensitive to standard antimalarials)
Assay: semiautomated microdilution assay, [3H]-hypoxanthine incorporation, NF54 strain
Format: cell-based, Plasmodium falciparum
Conditions: NF54 strain, 72 h incubation
How it was run: as §1

Compound	IC50 (ng/ml) NF54
C1CCC2(CC1)OOC1(CCCCC1)O2 [OZ01]	>100/>100 ng/ml
O=S(=O)(c1cccc2cccnc12)N1CCC2(CC1)OOC1(O2)C2CC3CC(C2)CC1C3 (stereo not shown) [OZ114]	2.2 ng/mL (≈ 4.82 nM)
NOC[C@H]1CC[C@]2(CC1)OO[C@]1(O2)C2CC3CC(C2)CC1C3 [OZ334]	20 ng/mL (≈ 64.6 nM)
O=S(=O)(c1ccccc1)N1CCC2(CC1)OOC1(O2)C2CC3CC(C2)CC1C3 (stereo not shown) [OZ60]	1.2 ng/mL (≈ 2.96 nM)
O=C(O)c1nccnc1C(=O)N1CCC2(CC1)OOC1(O2)C2CC3CC(C2)CC1C3 (stereo not shown) [OZ109]	24 ng/mL (≈ 57.8 nM)
Fc1ccc(C2CCC3(CC2)OOC2(O3)C3CC4CC(C3)CC2C4)cc1 (stereo not shown) [OZ41]	4.6 ng/mL (≈ 12.8 nM)
C1C2CC3CC1CC(C2)C31OOC2(CCC(NC3CC3)CC2)O1 (stereo not shown) [OZ185]	1.4 ng/mL (≈ 4.38 nM)
NC(=O)N[C@H]1CC[C@]2(CC1)OOC1(O2)C2CC3CC(C2)CC1C3 (stereo partly shown) [OZ221]	>10/>10 ng/ml
CC(C)(C)NC(=O)N1CCC2(CC1)OOC1(O2)C2CC3CC(C2)CC1C3 (stereo not shown) [OZ143]	1.8 ng/mL (≈ 4.94 nM)
O=C(O)C1(C(=O)O)COC2(CCC3(CC2)OOC2(O3)C3CC4CC(C3)CC2C4)OC1 (stereo not shown) [OZ122]	>100/>100 ng/ml
Cc1ccc(S(=O)(=O)NN=C2CCC3(CC2)OOC2(O3)C3CC4CC(C3)CC2C4)cc1 (stereo not shown) [OZ39]	1.8 ng/mL (≈ 4.03 nM)
c1ccc2c(c1)CCC1(C2)OOC2(O1)C1CC3CC(C1)CC2C3 (stereo not shown) [OZ85]	1.8 ng/mL (≈ 5.76 nM)

Tested on: ANKA strain of P. berghei
Assay: single dose STI in vivo screen in infected mice
Set-up: species or system Plasmodium berghei
Conditions: percent reduction in parasitemia day 3 post-infection; single 3 mg/kg po in SSV
How it was run: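 Groups of 3-5 Moro SPF or NMRI mice infected with the ANKA strain of P. berghei received a single dose of trioxolane on day one post-infection. The compound was given in 3% ethanol and 7% Tween 80 or in SSV (0.5% w/v CMC, 0.5% v/v benzyl alcohol, 0.4% v/v Tween 80, 0.9% w/v sodium chloride in water). Antimalarial activity was scored as percent reduction in parasitemia on day three and as survival time versus untreated controls. Survival to day 30 counted as cure.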

Compound	Activity (%) 3 mg/kg SSV po [%]
NOC[C@H]1CC[C@]2(CC1)OO[C@]1(O2)C2CC3CC(C2)CC1C3 [OZ334]	13

Same assay, conditions: percent reduction in parasitemia day 3 post-infection; single 10 mg/kg po in 3% ethanol and 7% Tween 80; mice

Compound	Activity (%) po
C1CCC2(CC1)OOC1(CCCCC1)O2 [OZ01]	0/NA/0^1%
O=S(=O)(c1cccc2cccnc12)N1CCC2(CC1)OOC1(O2)C2CC3CC(C2)CC1C3 (stereo not shown) [OZ114]	0%
O=S(=O)(c1ccccc1)N1CCC2(CC1)OOC1(O2)C2CC3CC(C2)CC1C3 (stereo not shown) [OZ60]	71%
O=C(O)c1nccnc1C(=O)N1CCC2(CC1)OOC1(O2)C2CC3CC(C2)CC1C3 (stereo not shown) [OZ109]	2%
Fc1ccc(C2CCC3(CC2)OOC2(O3)C3CC4CC(C3)CC2C4)cc1 (stereo not shown) [OZ41]	99.98%
C1C2CC3CC1CC(C2)C31OOC2(CCC(NC3CC3)CC2)O1 (stereo not shown) [OZ185]	86%
NC(=O)N[C@H]1CC[C@]2(CC1)OOC1(O2)C2CC3CC(C2)CC1C3 (stereo partly shown) [OZ221]	80%
CC(C)(C)NC(=O)N1CCC2(CC1)OOC1(O2)C2CC3CC(C2)CC1C3 (stereo not shown) [OZ143]	48%
O=C(O)C1(C(=O)O)COC2(CCC3(CC2)OOC2(O3)C3CC4CC(C3)CC2C4)OC1 (stereo not shown) [OZ122]	10%
Cc1ccc(S(=O)(=O)NN=C2CCC3(CC2)OOC2(O3)C3CC4CC(C3)CC2C4)cc1 (stereo not shown) [OZ39]	61%
c1ccc2c(c1)CCC1(C2)OOC2(O1)C1CC3CC(C1)CC2C3 (stereo not shown) [OZ85]	34%

Same assay, conditions: percent reduction in parasitemia day 3 post-infection; single 10 mg/kg po in SSV

Compound	Activity (%) 10 mg/kg SSV po [%]
NOC[C@H]1CC[C@]2(CC1)OO[C@]1(O2)C2CC3CC(C2)CC1C3 [OZ334]	47

Same assay, conditions: percent reduction in parasitemia day 3 post-infection; single 10 mg/kg sc in 3% ethanol and 7% Tween 80; mice

Compound	Activity (%) sc
C1CCC2(CC1)OOC1(CCCCC1)O2 [OZ01]	0/NA/0^1%
O=S(=O)(c1cccc2cccnc12)N1CCC2(CC1)OOC1(O2)C2CC3CC(C2)CC1C3 (stereo not shown) [OZ114]	99.64%
O=S(=O)(c1ccccc1)N1CCC2(CC1)OOC1(O2)C2CC3CC(C2)CC1C3 (stereo not shown) [OZ60]	100%
O=C(O)c1nccnc1C(=O)N1CCC2(CC1)OOC1(O2)C2CC3CC(C2)CC1C3 (stereo not shown) [OZ109]	24%
Fc1ccc(C2CCC3(CC2)OOC2(O3)C3CC4CC(C3)CC2C4)cc1 (stereo not shown) [OZ41]	99.5%
C1C2CC3CC1CC(C2)C31OOC2(CCC(NC3CC3)CC2)O1 (stereo not shown) [OZ185]	99.96%
NC(=O)N[C@H]1CC[C@]2(CC1)OOC1(O2)C2CC3CC(C2)CC1C3 (stereo partly shown) [OZ221]	97%
CC(C)(C)NC(=O)N1CCC2(CC1)OOC1(O2)C2CC3CC(C2)CC1C3 (stereo not shown) [OZ143]	99.85%
O=C(O)C1(C(=O)O)COC2(CCC3(CC2)OOC2(O3)C3CC4CC(C3)CC2C4)OC1 (stereo not shown) [OZ122]	0%
Cc1ccc(S(=O)(=O)NN=C2CCC3(CC2)OOC2(O3)C3CC4CC(C3)CC2C4)cc1 (stereo not shown) [OZ39]	99.3%
c1ccc2c(c1)CCC1(C2)OOC2(O1)C1CC3CC(C1)CC2C3 (stereo not shown) [OZ85]	99.7%

Same assay, conditions: percent reduction in parasitemia day 3 post-infection; single po dose in standard suspending vehicle (SSV); mice

Compound	Activity (%) SSVpo [%]
O=S(=O)(c1cccc2cccnc12)N1CCC2(CC1)OOC1(O2)C2CC3CC(C2)CC1C3 (stereo not shown) [OZ114]	0
O=C(O)c1nccnc1C(=O)N1CCC2(CC1)OOC1(O2)C2CC3CC(C2)CC1C3 (stereo not shown) [OZ109]	0
Fc1ccc(C2CCC3(CC2)OOC2(O3)C3CC4CC(C3)CC2C4)cc1 (stereo not shown) [OZ41]	81
C1C2CC3CC1CC(C2)C31OOC2(CCC(NC3CC3)CC2)O1 (stereo not shown) [OZ185]	56
NC(=O)N[C@H]1CC[C@]2(CC1)OOC1(O2)C2CC3CC(C2)CC1C3 (stereo partly shown) [OZ221]	87
CC(C)(C)NC(=O)N1CCC2(CC1)OOC1(O2)C2CC3CC(C2)CC1C3 (stereo not shown) [OZ143]	44
O=C(O)C1(C(=O)O)COC2(CCC3(CC2)OOC2(O3)C3CC4CC(C3)CC2C4)OC1 (stereo not shown) [OZ122]	3

Same assay, conditions: single 10 mg/kg po in 3% ethanol and 7% Tween 80; untreated control 5.6 ± 0.3

Compound	Survival (days) po
C1CCC2(CC1)OOC1(CCCCC1)O2 [OZ01]	5.3/NA/5.3^1 days
O=S(=O)(c1cccc2cccnc12)N1CCC2(CC1)OOC1(O2)C2CC3CC(C2)CC1C3 (stereo not shown) [OZ114]	5.7 days
O=S(=O)(c1ccccc1)N1CCC2(CC1)OOC1(O2)C2CC3CC(C2)CC1C3 (stereo not shown) [OZ60]	6.0 days
O=C(O)c1nccnc1C(=O)N1CCC2(CC1)OOC1(O2)C2CC3CC(C2)CC1C3 (stereo not shown) [OZ109]	5.7 days
Fc1ccc(C2CCC3(CC2)OOC2(O3)C3CC4CC(C3)CC2C4)cc1 (stereo not shown) [OZ41]	12.1 days
C1C2CC3CC1CC(C2)C31OOC2(CCC(NC3CC3)CC2)O1 (stereo not shown) [OZ185]	7.7 days
NC(=O)N[C@H]1CC[C@]2(CC1)OOC1(O2)C2CC3CC(C2)CC1C3 (stereo partly shown) [OZ221]	6.3 days
CC(C)(C)NC(=O)N1CCC2(CC1)OOC1(O2)C2CC3CC(C2)CC1C3 (stereo not shown) [OZ143]	6.7 days
O=C(O)C1(C(=O)O)COC2(CCC3(CC2)OOC2(O3)C3CC4CC(C3)CC2C4)OC1 (stereo not shown) [OZ122]	5.7 days
Cc1ccc(S(=O)(=O)NN=C2CCC3(CC2)OOC2(O3)C3CC4CC(C3)CC2C4)cc1 (stereo not shown) [OZ39]	6.3 days
c1ccc2c(c1)CCC1(C2)OOC2(O1)C1CC3CC(C1)CC2C3 (stereo not shown) [OZ85]	6.0 days

Same assay, conditions: single 10 mg/kg po in SSV

Compound	Survival (days) 10 mg/kg SSV po [days]
NOC[C@H]1CC[C@]2(CC1)OO[C@]1(O2)C2CC3CC(C2)CC1C3 [OZ334]	6.8

Same assay, conditions: single 10 mg/kg sc in 3% ethanol and 7% Tween 80; untreated control 5.6 ± 0.3

Compound	Survival (days) sc
C1CCC2(CC1)OOC1(CCCCC1)O2 [OZ01]	5.3/NA/5.3^1 days
O=S(=O)(c1cccc2cccnc12)N1CCC2(CC1)OOC1(O2)C2CC3CC(C2)CC1C3 (stereo not shown) [OZ114]	8.7 days
O=S(=O)(c1ccccc1)N1CCC2(CC1)OOC1(O2)C2CC3CC(C2)CC1C3 (stereo not shown) [OZ60]	10.3 days
O=C(O)c1nccnc1C(=O)N1CCC2(CC1)OOC1(O2)C2CC3CC(C2)CC1C3 (stereo not shown) [OZ109]	6.3 days
Fc1ccc(C2CCC3(CC2)OOC2(O3)C3CC4CC(C3)CC2C4)cc1 (stereo not shown) [OZ41]	10.7 days
C1C2CC3CC1CC(C2)C31OOC2(CCC(NC3CC3)CC2)O1 (stereo not shown) [OZ185]	10.7 days
NC(=O)N[C@H]1CC[C@]2(CC1)OOC1(O2)C2CC3CC(C2)CC1C3 (stereo partly shown) [OZ221]	8.0 days
CC(C)(C)NC(=O)N1CCC2(CC1)OOC1(O2)C2CC3CC(C2)CC1C3 (stereo not shown) [OZ143]	9.7 days
O=C(O)C1(C(=O)O)COC2(CCC3(CC2)OOC2(O3)C3CC4CC(C3)CC2C4)OC1 (stereo not shown) [OZ122]	5.0 days
Cc1ccc(S(=O)(=O)NN=C2CCC3(CC2)OOC2(O3)C3CC4CC(C3)CC2C4)cc1 (stereo not shown) [OZ39]	7.7 days
c1ccc2c(c1)CCC1(C2)OOC2(O1)C1CC3CC(C1)CC2C3 (stereo not shown) [OZ85]	8.3 days

Same assay, conditions: single po dose in SSV; untreated control 5.6 ± 0.3

Compound	Survival (days) SSVpo [days]
O=S(=O)(c1cccc2cccnc12)N1CCC2(CC1)OOC1(O2)C2CC3CC(C2)CC1C3 (stereo not shown) [OZ114]	6.0
O=C(O)c1nccnc1C(=O)N1CCC2(CC1)OOC1(O2)C2CC3CC(C2)CC1C3 (stereo not shown) [OZ109]	5.7
Fc1ccc(C2CCC3(CC2)OOC2(O3)C3CC4CC(C3)CC2C4)cc1 (stereo not shown) [OZ41]	6.8
C1C2CC3CC1CC(C2)C31OOC2(CCC(NC3CC3)CC2)O1 (stereo not shown) [OZ185]	6.7
NC(=O)N[C@H]1CC[C@]2(CC1)OOC1(O2)C2CC3CC(C2)CC1C3 (stereo partly shown) [OZ221]	7.0
CC(C)(C)NC(=O)N1CCC2(CC1)OOC1(O2)C2CC3CC(C2)CC1C3 (stereo not shown) [OZ143]	6.7
O=C(O)C1(C(=O)O)COC2(CCC3(CC2)OOC2(O3)C3CC4CC(C3)CC2C4)OC1 (stereo not shown) [OZ122]	5.3
